In brackets after ≈: the same amount, converted by molar mass.
Key:
[1] = molecular target: T1, Non-receptor tyrosine-protein kinase TYK2 (Homo sapiens, UniProt P29597); assay: Inhibition of TYK2 in human T-blast cells assessed as IL-12 induced STAT4 phosphorylation at Tyr694 residue preincubated for 30 mins followed by IL-12 stimulation and measured after 20 mins by AlphaScreen assay; assay type: cell-based, T-blast cell
[2] = Metabolic stability in human hepatocytes assessed as intrinsic clearance for unbound fraction of drug; assay type: ADME, cell-based, Hepatocyte
[3] = molecular target: T2, Tyrosine-protein kinase JAK3 (Homo sapiens, UniProt P52333); assay: Inhibition of JAK3 in human T-blast cells assessed as reduction in IL-2 induced STAT5 phosphorylation preincubated for 30 mins followed by IL-2 stimulation and measured after 20 mins by AlphaScreen assay; assay type: cell-based, T-blast cell
T2 sequence (P52333 whole entry): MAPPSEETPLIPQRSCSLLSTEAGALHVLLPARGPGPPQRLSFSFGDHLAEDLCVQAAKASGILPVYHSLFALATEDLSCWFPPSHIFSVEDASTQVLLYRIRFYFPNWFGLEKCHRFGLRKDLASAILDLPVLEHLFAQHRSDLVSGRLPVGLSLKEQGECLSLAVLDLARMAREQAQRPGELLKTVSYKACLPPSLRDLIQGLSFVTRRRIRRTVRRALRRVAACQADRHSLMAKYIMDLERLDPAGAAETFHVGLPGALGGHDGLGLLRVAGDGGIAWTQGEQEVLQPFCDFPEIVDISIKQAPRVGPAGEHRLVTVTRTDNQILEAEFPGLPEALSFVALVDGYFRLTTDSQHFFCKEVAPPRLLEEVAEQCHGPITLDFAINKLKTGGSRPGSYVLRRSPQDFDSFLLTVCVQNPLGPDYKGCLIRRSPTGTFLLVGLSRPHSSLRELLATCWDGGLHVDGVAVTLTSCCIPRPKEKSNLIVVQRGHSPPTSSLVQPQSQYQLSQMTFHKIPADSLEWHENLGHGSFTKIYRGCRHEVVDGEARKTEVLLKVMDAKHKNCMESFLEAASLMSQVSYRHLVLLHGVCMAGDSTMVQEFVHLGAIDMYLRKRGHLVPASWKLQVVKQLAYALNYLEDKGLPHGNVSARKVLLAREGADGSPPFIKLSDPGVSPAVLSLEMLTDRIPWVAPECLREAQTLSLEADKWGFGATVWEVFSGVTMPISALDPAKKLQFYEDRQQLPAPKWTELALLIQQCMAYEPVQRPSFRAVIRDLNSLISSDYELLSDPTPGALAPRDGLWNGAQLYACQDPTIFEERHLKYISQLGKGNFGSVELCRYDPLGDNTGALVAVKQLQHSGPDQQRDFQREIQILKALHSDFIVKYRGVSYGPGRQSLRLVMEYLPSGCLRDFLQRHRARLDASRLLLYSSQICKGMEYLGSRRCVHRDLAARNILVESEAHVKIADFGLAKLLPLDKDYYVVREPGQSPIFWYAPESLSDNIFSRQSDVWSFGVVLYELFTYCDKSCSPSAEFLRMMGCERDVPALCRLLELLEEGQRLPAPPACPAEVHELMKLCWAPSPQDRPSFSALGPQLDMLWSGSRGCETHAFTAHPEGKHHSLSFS

CYP3A4 [4] = molecular target: T3, CYP3A4 (Homo sapiens, UniProt P08684); assay: Time dependent inhibition of CYP3A4 in human liver microsomes using midazolam as substrate assessed as 1'-OH midazolam metabolite formation at 50 uM preincubated for 30 mins in presence of NADPH followed by substrate addition and measured after 15 mins by HPLC-MS/MS analysis relative to control; assay type: ADME, Microsome; settings: probe midazolam, time 45 min, read-out: TDI
T3 sequence (P08684 whole entry): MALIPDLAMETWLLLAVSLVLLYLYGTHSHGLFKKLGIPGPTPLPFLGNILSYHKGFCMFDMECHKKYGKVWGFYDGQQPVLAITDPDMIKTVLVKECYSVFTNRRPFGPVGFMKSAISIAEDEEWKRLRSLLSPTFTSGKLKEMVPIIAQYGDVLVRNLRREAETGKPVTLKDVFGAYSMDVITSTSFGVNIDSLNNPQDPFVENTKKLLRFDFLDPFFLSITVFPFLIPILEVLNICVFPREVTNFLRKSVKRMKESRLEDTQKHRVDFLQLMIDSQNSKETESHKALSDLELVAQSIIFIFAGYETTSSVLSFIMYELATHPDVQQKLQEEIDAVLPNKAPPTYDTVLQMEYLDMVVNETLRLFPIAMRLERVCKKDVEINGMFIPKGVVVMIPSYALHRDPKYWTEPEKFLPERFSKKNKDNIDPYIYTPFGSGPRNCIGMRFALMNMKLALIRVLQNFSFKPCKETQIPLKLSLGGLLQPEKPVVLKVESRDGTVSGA

CYP3A4 [5] = molecular target: T3, CYP3A4; assay: Induction of CYP3A4 in human hepatocytes assessed as maximum activation in mRNA level at 10 uM incubated for 24 hrs by RT-qPCR analysis relative to control; assay type: ADME, cell-based, Hepatocyte; settings: read-out: max activation
[6] = Unbound clearance in rat blood at 1 mg/kg, iv or 1 mg/kg,po; assay type: ADME, organism-based; settings: in vivo
[7] = Volume of distribution at steady state in rat at 1 mg/kg, iv or 1 mg/kg,po; assay type: ADME, organism-based; settings: in vivo, read-out: Vdss
[8] = Oral bioavailability in rat at 1 mg/kg; assay type: ADME, organism-based; settings: in vivo
[9] = Metabolic stability in dog hepatocytes assessed as intrinsic clearance for unbound fraction of drug; assay type: ADME, cell-based, Canis lupus familiaris, Hepatocyte
[10] = Half life in dog at 1 mg/kg, iv; assay type: ADME, organism-based, Canis lupus familiaris; settings: in vivo
[11] = Oral bioavailability in dog at 1 mg/kg; assay type: ADME, organism-based, Canis lupus familiaris; settings: in vivo
[12] = Half life in cynomolgus monkey at 1 mg/kg, iv; assay type: ADME, organism-based, Macaca fascicularis; settings: in vivo
[13] = AUC (0 to infinity) in cynomolgus monkey at 1 mg/kg,po; assay type: ADME, organism-based, Macaca fascicularis; parameters: dose 1 mg/kg, route po; settings: in vivo
[14] = Oral bioavailability in cynomolgus monkey at 1 mg/kg; assay type: ADME, organism-based, Macaca fascicularis; settings: in vivo
[15] = molecular target: T1, Non-receptor tyrosine-protein kinase TYK2; assay: Inhibition of TYK2 in human whole blood assessed as decrease in STAT4 phosphorylation preincubated for 30 mins followed by human IL-23 stimulation and measured after 20 mins by flow cytometry; assay type: tissue-based
[16] = In vivo inhibition of TYK2 in IL-12/IL-18 induced C57/B6 mouse model assessed as reduction in serum IFN-gamma production at 10 mg/kg,po pretreated for 30 mins prior to IL-12/IL-18 challenge and measured after 4 hrs by MSD assay; assay type: functional; settings: C57/B6, 4.5 h, time 270 min
[17] = In vivo inhibition of TYK2 in IL-12/IL-18 induced C57/B6 mouse model assessed as reduction in serum IFN-gamma production at 600 mg/kg,po pretreated for 30 mins prior to IL-12/IL-18 challenge and measured after 4 hrs by MSD assay; assay type: functional; settings: C57/B6, 4.5 h, time 270 min
Mus musculus [18] = assay: Anti-inflammatory activity in B10.RII mouse model of mouse IL-23 mini circle induced psoriasiform dermatitis assessed as decrease in ear thickness at 30 mg/kg,po BID for 5 days by caliper analysis; assay type: functional; parameters: scale not given: the % may be the effect or the level left; settings: time 5 day
Mus musculus [19] = assay: Anti-inflammatory activity in B10.RII mouse model of mouse IL-23 mini circle induced psoriasiform dermatitis assessed as decrease in ear thickness at 100 mg/kg,po BID for 5 days by caliper analysis; assay type: functional; parameters: scale not given: the % may be the effect or the level left; settings: time 5 day
Mus musculus [20] = assay: Anti-inflammatory activity in B10.RII mouse model of mouse IL-23 mini circle induced psoriasiform dermatitis assessed as decrease in ear thickness at 100 mg/kg,po QD for 5 days by caliper analysis; assay type: functional; parameters: scale not given: the % may be the effect or the level left; settings: time 5 day
[21] = In vivo inhibition of TYK2 in po dosed IL-12/IL-18 induced C57/B6 mouse model assessed as reduction in serum IFN-gamma production measured at 1 to 10000 ng/ml of whole blood drug exposure level measured after 30 mins; assay type: functional, organism-based; settings: C57/B6, 0.5 h
Mus musculus [22] = assay: Anti-inflammatory activity in po dosed B10.RII mouse model of mouse IL-23 mini circle induced psoriasiform dermatitis assessed as decrease in ear thickness measured at 1 to 100 ng/ml of whole blood drug exposure level measured after 30 mins; assay type: functional, organism-based; settings: 0.5 h
Mus musculus [23] = assay: Anti-inflammatory activity in po dosed B10.RII mouse model of mouse IL-23 mini circle induced psoriasiform dermatitis assessed as decrease in ear thickness measured at 101 to 10000 ng/ml of whole blood drug exposure level measured after 30 mins; assay type: functional, organism-based; settings: 0.5 h

T1 sequence (P29597 whole entry): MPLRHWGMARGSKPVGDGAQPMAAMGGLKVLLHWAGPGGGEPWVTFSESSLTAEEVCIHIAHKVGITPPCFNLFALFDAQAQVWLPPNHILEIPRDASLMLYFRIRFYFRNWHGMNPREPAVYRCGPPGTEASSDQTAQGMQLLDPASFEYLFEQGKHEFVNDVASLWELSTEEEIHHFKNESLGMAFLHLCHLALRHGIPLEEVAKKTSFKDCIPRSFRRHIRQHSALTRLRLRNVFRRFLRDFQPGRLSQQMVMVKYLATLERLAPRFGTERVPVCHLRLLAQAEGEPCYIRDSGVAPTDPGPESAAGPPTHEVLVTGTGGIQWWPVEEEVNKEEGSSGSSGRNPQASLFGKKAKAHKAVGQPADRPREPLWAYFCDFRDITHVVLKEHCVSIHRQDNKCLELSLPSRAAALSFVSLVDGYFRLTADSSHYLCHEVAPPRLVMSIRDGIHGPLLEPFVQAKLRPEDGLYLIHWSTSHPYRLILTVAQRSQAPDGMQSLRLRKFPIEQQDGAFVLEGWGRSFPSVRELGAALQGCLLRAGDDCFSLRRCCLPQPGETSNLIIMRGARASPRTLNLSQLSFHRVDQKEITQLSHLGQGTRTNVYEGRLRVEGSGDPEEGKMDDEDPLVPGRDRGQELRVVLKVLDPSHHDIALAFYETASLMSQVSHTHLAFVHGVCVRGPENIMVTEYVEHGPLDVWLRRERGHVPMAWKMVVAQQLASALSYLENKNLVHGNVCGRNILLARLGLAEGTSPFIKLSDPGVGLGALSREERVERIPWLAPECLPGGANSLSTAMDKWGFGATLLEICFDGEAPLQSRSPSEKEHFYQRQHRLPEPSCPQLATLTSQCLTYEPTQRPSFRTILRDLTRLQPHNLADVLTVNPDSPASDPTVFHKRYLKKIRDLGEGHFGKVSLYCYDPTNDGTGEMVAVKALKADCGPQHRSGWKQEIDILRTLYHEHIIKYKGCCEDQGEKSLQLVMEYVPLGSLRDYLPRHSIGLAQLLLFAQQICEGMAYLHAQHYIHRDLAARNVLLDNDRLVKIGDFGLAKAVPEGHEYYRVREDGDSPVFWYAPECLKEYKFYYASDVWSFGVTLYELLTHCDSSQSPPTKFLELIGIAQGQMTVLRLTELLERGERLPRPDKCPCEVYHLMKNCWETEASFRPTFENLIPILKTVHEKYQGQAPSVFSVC

EC50 [1]: 195 nM
CL free [2]: 31.7 mL/min/kg
EC50 [3]: > 20000 nM
inhibition at 0.25 h, 50 µM (CYP3A4 [4]): 22%
Emax at 24 h, 10 µM (CYP3A4 [5]): 2%
CL free [6]: 68.3 mL/min/kg
Vd [7]: 1.9 L/kg
bioavailability [8]: 19%
CL free [9]: 21.7 mL/min/kg
half-life [10]: 4.5 h
bioavailability [11]: 88%
half-life [12]: 1.2 h
AUC(0-inf) [13]: 80 ng·h/mL
bioavailability [14]: 17%
EC50 [15]: 160 nM
IC50 [21]: 3.08 µg/mL (≈ 6.81 µM)
EC50 (Mus musculus [22]): 0.104 µg/mL (≈ 0.23 µM)
EC50 (Mus musculus [23]): 0.3 µg/mL (≈ 0.663 µM)
Structure (SMILES): COCc1cc(-c2cn(C3COC3)c3cnc(NC(C)=O)cc23)nc([C@]2(OC)CCOC2)c1
inhibition in vivo at 10 mg/kg [16]: 24%
inhibition in vivo at 600 mg/kg [17]: 99%
Activity (Mus musculus [18]): 51%
Activity (Mus musculus [19]): 61%
Activity (Mus musculus [20]): 58%

Source: ChEMBL document CHEMBL5370619, “Targeting the Tyrosine Kinase 2 (TYK2) Pseudokinase Domain: Discovery of the Selective TYK2 Inhibitor ABBV-712” (J Med Chem, 2023)
